The numbers were not newly measured in article PMC11940238, “Ru(II) Complexes with 3,4-Dimethylphenylhydrazine: Exploring In Vitro Anticancer Activity and Protein Affinities” (Biomolecules, 2025), which cites them from elsewhere.

This series concerns Bovine Serum Albumin (BSA). Particulars: cited from earlier work.

Turning to `Cc1ccc(C(C)C)cc1.O=[N+]([O-])c1cccc([NH+]2[NH2+][Ru-]2[Cl])c1` (stereo not shown) [[RuCl(η^6-p-cymene)(3-DNPH)], chlorido(η^6-p-cymene)(3-nitrophenylhydrazine-k^2N,N’)ruthenium(II)], the “sign of the change in enthalpy and entropy of binding” value is reported as “positive values”.
